Reference: ChEMBL document CHEMBL3046483, “Novel 2'-hydroxylfurylchalcones: synthesis and biological activity” (2010)
The source made the active and inactive calls. The calls are words filed in the database; no cut-off is given here.

Each molecule was assayed on Dinebra chinensis (assay: Herbicidal activity against Dinebra chinensis assessed as inhibitory rate of seedling height at 7.5 g/hm'2 relative to control).
Assay type: functional

| Compound | inhibition (INH) |
| --- | --- |
| O=C(/C=C/c1ccco1)c1occc1O | -3.2% |
| O=C(/C=C/c1ccc(Cl)cc1Cl)c1occc1O | -0.7% |
| O=C(/C=C/c1ccccn1)c1occc1O | 6.7% |
| O=C(/C=C/c1ccc(Cl)cc1)c1occc1O | -3.9% |
| COc1ccc(/C=C/C(=O)c2occc2O)cc1 | 2.1% |
| N#Cc1cccc(/C=C/C(=O)c2occc2O)c1 | -12.3% |

What follows are molecules tested on Dinebra chinensis (assay: Herbicidal activity against Dinebra chinensis assessed as inhibitory rate of fresh weight gain at 7.5 g/hm'2 relative to control).
Assay type: functional

| Compound | inhibition (INH) |
| --- | --- |
| O=C(/C=C/c1ccco1)c1occc1O | 56.1% |
| O=C(/C=C/c1ccc(Cl)cc1Cl)c1occc1O | 57.1% |
| O=C(/C=C/c1ccccn1)c1occc1O | 37.4% |
| O=C(/C=C/c1ccc(Cl)cc1)c1occc1O | 52.6% |
| COc1ccc(/C=C/C(=O)c2occc2O)cc1 | 60.4% |
| N#Cc1cccc(/C=C/C(=O)c2occc2O)c1 | 12.4% |

What follows are molecules tested on Sorghum bicolor (assay: Herbicidal activity against Sorghum bicolor assessed as inhibitory rate of fresh weight gain at 7.5 g/hm'2 relative to control).
Assay type: functional

| Compound | inhibition (INH) |
| --- | --- |
| O=C(/C=C/c1ccco1)c1occc1O | 12.4% |
| O=C(/C=C/c1ccccn1)c1occc1O | 11.3% |
| N#Cc1cccc(/C=C/C(=O)c2occc2O)c1 | 24% |

These molecules were tested on Sorghum bicolor (assay: Herbicidal activity against Sorghum bicolor assessed as inhibitory rate of seedling height at 7.5 g/hm'2 relative to control).
Assay type: functional

| Compound | inhibition (INH) |
| --- | --- |
| O=C(/C=C/c1ccco1)c1occc1O | 4% |
| O=C(/C=C/c1ccccn1)c1occc1O | 13.6% |
| N#Cc1cccc(/C=C/C(=O)c2occc2O)c1 | 34% |

These molecules were tested on Triticum aestivum (assay: Herbicidal activity against Triticum aestivum (wheat) assessed as inhibitory rate of fresh weight gain at 7.5 g/hm'2 relative to control).
Assay type: functional

| Compound | inhibition (INH) |
| --- | --- |
| O=C(/C=C/c1ccco1)c1occc1O | 49.6% |
| O=C(/C=C/c1ccc(Cl)cc1Cl)c1occc1O | 63.4% |
| O=C(/C=C/c1ccccn1)c1occc1O | 40.9% |
| O=C(/C=C/c1ccc(Cl)cc1)c1occc1O | 64.6% |
| COc1ccc(/C=C/C(=O)c2occc2O)cc1 | 53.3% |
| N#Cc1cccc(/C=C/C(=O)c2occc2O)c1 | 36.1% |

These molecules were tested on Triticum aestivum (assay: Herbicidal activity against Triticum aestivum (wheat) assessed as inhibitory rate of seedling height at 7.5 g/hm'2 relative to control).
Assay type: functional

| Compound | inhibition (INH) |
| --- | --- |
| O=C(/C=C/c1ccco1)c1occc1O | 24.4% |
| O=C(/C=C/c1ccc(Cl)cc1Cl)c1occc1O | 39.5% |
| O=C(/C=C/c1ccccn1)c1occc1O | 37% |
| O=C(/C=C/c1ccc(Cl)cc1)c1occc1O | 41.8% |
| COc1ccc(/C=C/C(=O)c2occc2O)cc1 | 35.4% |
| N#Cc1cccc(/C=C/C(=O)c2occc2O)c1 | 30.5% |

What follows are molecules tested on Amaranthus tricolor (assay: Herbicidal activity against Amaranthus tricolor assessed as inhibitory rate of fresh weight gain at 7.5 g/hm'2 relative to control).
Assay type: functional

| Compound | inhibition (INH) |
| --- | --- |
| O=C(/C=C/c1ccco1)c1occc1O | 69.6% |
| O=C(/C=C/c1ccc(Cl)cc1Cl)c1occc1O | 69.6% |
| O=C(/C=C/c1ccccn1)c1occc1O | 23.9% |
| O=C(/C=C/c1ccc(Cl)cc1)c1occc1O | 81.2% |
| COc1ccc(/C=C/C(=O)c2occc2O)cc1 | 54.8% |
| N#Cc1cccc(/C=C/C(=O)c2occc2O)c1 | 31.7% |

These molecules were tested on Amaranthus tricolor (assay: Herbicidal activity against Amaranthus tricolor assessed as inhibitory rate of seedling height at 7.5 g/hm'2 relative to control).
Assay type: functional

| Compound | inhibition (INH) |
| --- | --- |
| O=C(/C=C/c1ccco1)c1occc1O | 12.5% |
| O=C(/C=C/c1ccc(Cl)cc1Cl)c1occc1O | 18.8% |
| O=C(/C=C/c1ccccn1)c1occc1O | 18.8% |
| O=C(/C=C/c1ccc(Cl)cc1)c1occc1O | 37.5% |
| COc1ccc(/C=C/C(=O)c2occc2O)cc1 | 37.5% |
| N#Cc1cccc(/C=C/C(=O)c2occc2O)c1 | 37.5% |

These molecules were tested on Brassica rapa subsp. oleifera (assay: Herbicidal activity against Brassica rapa subsp. oleifera assessed as inhibitory rate of fresh weight gain at 7.5 g/hm'2 relative to control).
Assay type: functional

| Compound | inhibition (INH) |
| --- | --- |
| O=C(/C=C/c1ccco1)c1occc1O | 82.1% |
| O=C(/C=C/c1ccc(Cl)cc1Cl)c1occc1O | 87.2% |
| O=C(/C=C/c1ccccn1)c1occc1O | 31.8% |
| O=C(/C=C/c1ccc(Cl)cc1)c1occc1O | 83.5% |
| COc1ccc(/C=C/C(=O)c2occc2O)cc1 | 72.3% |
| N#Cc1cccc(/C=C/C(=O)c2occc2O)c1 | -5.9% |

Each molecule was assayed on Brassica rapa subsp. oleifera (assay: Herbicidal activity against Brassica rapa subsp. oleifera assessed as inhibitory rate of seedling height at 7.5 g/hm'2 relative to control).
Assay type: functional

| Compound | inhibition (INH) |
| --- | --- |
| O=C(/C=C/c1ccco1)c1occc1O | 38.1% |
| O=C(/C=C/c1ccc(Cl)cc1Cl)c1occc1O | 42.9% |
| O=C(/C=C/c1ccccn1)c1occc1O | 52.4% |
| O=C(/C=C/c1ccc(Cl)cc1)c1occc1O | 52.4% |
| COc1ccc(/C=C/C(=O)c2occc2O)cc1 | 38.1% |
| N#Cc1cccc(/C=C/C(=O)c2occc2O)c1 | 14.3% |

The molecules below were run on Cucumis sativus (assay: Herbicidal activity against Cucumis sativus (cucumber) assessed as inhibitory rate of fresh weight gain at 7.5 g/hm'2 relative to control).
Assay type: functional

| Compound | inhibition (INH) |
| --- | --- |
| O=C(/C=C/c1ccco1)c1occc1O | 49.7% |
| O=C(/C=C/c1ccc(Cl)cc1Cl)c1occc1O | 37.3% |
| O=C(/C=C/c1ccccn1)c1occc1O | 33.1% |
| O=C(/C=C/c1ccc(Cl)cc1)c1occc1O | 68.2% |
| COc1ccc(/C=C/C(=O)c2occc2O)cc1 | 35.3% |
| N#Cc1cccc(/C=C/C(=O)c2occc2O)c1 | 13.7% |

What follows are molecules tested on Cucumis sativus (assay: Herbicidal activity against Cucumis sativus (cucumber) assessed as inhibitory rate of seedling height at 7.5 g/hm'2 relative to control).
Assay type: functional

| Compound | inhibition (INH) |
| --- | --- |
| O=C(/C=C/c1ccco1)c1occc1O | 36.1% |
| O=C(/C=C/c1ccc(Cl)cc1Cl)c1occc1O | 35.1% |
| O=C(/C=C/c1ccccn1)c1occc1O | 31% |
| O=C(/C=C/c1ccc(Cl)cc1)c1occc1O | 36.5% |
| COc1ccc(/C=C/C(=O)c2occc2O)cc1 | 33.3% |
| N#Cc1cccc(/C=C/C(=O)c2occc2O)c1 | 33.3% |

Each molecule was assayed on Golovinomyces cichoracearum (assay: Antifungal activity against Golovinomyces cichoracearum assessed as cucumber powdery mildew control measured after 1 day).
Assay type: functional
Set-up: concentration or dose not given beside the values

| Compound | Activity |
| --- | --- |
| O=C(/C=C/c1ccco1)c1occc1O | <10% |
| O=C(/C=C/c1ccc(Cl)cc1Cl)c1occc1O | <10% |
| O=C(/C=C/c1ccccn1)c1occc1O | <10% |
| O=C(/C=C/c1ccc(Cl)cc1)c1occc1O | <10% |
| COc1ccc(/C=C/C(=O)c2occc2O)cc1 | <10% |
| N#Cc1cccc(/C=C/C(=O)c2occc2O)c1 | <10% |

What follows are molecules tested on Pyricularia grisea (assay: Antifungal activity against Magnaporthe grisea assessed as rice blast control measured after 1 day).
Assay type: functional, organism-based

| Compound | Activity |
| --- | --- |
| O=C(/C=C/c1ccco1)c1occc1O | inactive |
| O=C(/C=C/c1ccc(Cl)cc1Cl)c1occc1O | inactive |
| O=C(/C=C/c1ccccn1)c1occc1O | inactive |
| O=C(/C=C/c1ccc(Cl)cc1)c1occc1O | inactive |
| COc1ccc(/C=C/C(=O)c2occc2O)cc1 | inactive |
| N#Cc1cccc(/C=C/C(=O)c2occc2O)c1 | inactive |

What follows are molecules tested on Pseudoperonospora cubensis (assay: Antifungal activity against Pseudoperonospora cubensis assessed as cucumber downy mildew control measured after 1 day).
Assay type: functional, organism-based

| Compound | Activity |
| --- | --- |
| O=C(/C=C/c1ccco1)c1occc1O | inactive |
| O=C(/C=C/c1ccc(Cl)cc1Cl)c1occc1O | inactive |
| O=C(/C=C/c1ccccn1)c1occc1O | inactive |
| O=C(/C=C/c1ccc(Cl)cc1)c1occc1O | inactive |
| COc1ccc(/C=C/C(=O)c2occc2O)cc1 | inactive |
| N#Cc1cccc(/C=C/C(=O)c2occc2O)c1 | inactive |

What follows are molecules tested on Botrytis cinerea (assay: Antifungal activity against Botryotinia fuckeliana assessed as cucumber grey mould control measured after 1 day).
Assay type: functional, organism-based

| Compound | Activity |
| --- | --- |
| O=C(/C=C/c1ccco1)c1occc1O | inactive |
| O=C(/C=C/c1ccc(Cl)cc1Cl)c1occc1O | inactive |
| O=C(/C=C/c1ccccn1)c1occc1O | inactive |
| O=C(/C=C/c1ccc(Cl)cc1)c1occc1O | inactive |
| COc1ccc(/C=C/C(=O)c2occc2O)cc1 | inactive |
| N#Cc1cccc(/C=C/C(=O)c2occc2O)c1 | inactive |
